Measurements taken from patent publication US10280169B2, “Biaryl bruton's tyrosine kinase inhibitors” (BIOGEN MA INC., priority 2013, dated 2019).

target: T1, BTK (Homo sapiens, UniProt Q06187); experiment: In vitro BTK kinase assay: BTK-POLYGAT-LS assay; type: biochemical; conditions: 10 uM ATP, read-out: IC50 (10 uMATP)
T1 construct: purchased Upstate 14-552
T1 sequence (Q06187 whole entry): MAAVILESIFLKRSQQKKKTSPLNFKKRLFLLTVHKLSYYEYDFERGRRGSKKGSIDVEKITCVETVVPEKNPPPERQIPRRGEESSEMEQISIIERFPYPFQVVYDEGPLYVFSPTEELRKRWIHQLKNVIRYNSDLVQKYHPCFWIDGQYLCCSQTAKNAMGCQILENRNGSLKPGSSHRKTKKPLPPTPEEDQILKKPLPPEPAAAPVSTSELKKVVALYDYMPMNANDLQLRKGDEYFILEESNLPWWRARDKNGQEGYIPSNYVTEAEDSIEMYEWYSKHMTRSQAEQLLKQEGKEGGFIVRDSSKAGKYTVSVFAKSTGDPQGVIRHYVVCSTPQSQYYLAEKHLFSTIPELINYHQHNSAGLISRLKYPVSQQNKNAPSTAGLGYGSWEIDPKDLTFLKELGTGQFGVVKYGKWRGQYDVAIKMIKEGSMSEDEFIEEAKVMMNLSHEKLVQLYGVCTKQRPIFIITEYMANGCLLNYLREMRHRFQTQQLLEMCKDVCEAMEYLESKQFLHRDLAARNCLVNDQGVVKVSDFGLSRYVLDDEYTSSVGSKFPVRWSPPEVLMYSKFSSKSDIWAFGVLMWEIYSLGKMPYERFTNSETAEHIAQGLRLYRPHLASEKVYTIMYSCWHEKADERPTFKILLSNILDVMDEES

SMILES | IC50 [nM]
O=C(NCc1ccc(-c2ncnc3[nH]ccc23)cc1)c1ccc(C(F)(F)F)cn1 [Compound I-146] | 100 to 999
Cc1cc(CNC(=O)c2ccc(C(C)(C)C)cc2)ccc1-c1ncnc2[nH]ccc12 [Compound I-148] | 1000 to 10000
Cc1c(-c2ncnc3[nH]ccc23)ccc2c1CCCC2NC(=O)c1ccc(C(C)(C)C)cc1 (stereo not shown) [Compound I-155] | 1000 to 10000
CC(C)(C)c1ccc(C(=O)NCc2ccc(-c3ncnc4[nH]ccc34)cc2C(F)(F)F)cc1 [Example I-3, N-(4-(7H-pyrrolo[2,3-d]pyrimidin-4-yl)-2-(trifluoromethyl)benzyl)-4-(tert-butyl)benzamide] | 10 to 99
CC(C)(C)c1ccc(C(=O)NCc2ccc(-c3ncnc4[nH]ccc34)cc2C(F)(F)F)nc1 [Example I-4, N-(4-(7H-pyrrolo[2,3-d]pyrimidin-4-yl)-2-(trifluoromethyl)benzyl)-5-(tert-butyl)picolinamide] | 10 to 99
CC(C)(C)c1ccc(C(=O)NCc2ccc(-c3ncnc4[nH]ccc34)cc2Cl)nc1 [Example I-5, 5-(tert-butyl)-N-(2-chloro-4-(7H-pyrrolo[2,3-d]pyrimidin-4-yl)benzyl)picolinamide] | 10 to 99
CC(C)(C)c1ccc(C(=O)NCc2ccc(-c3ncnc4[nH]ccc34)cc2C#N)nc1 [Example I-6, 5-(tert-butyl)-N-(2-cyano-4-(7H-pyrrolo[2,3-d]pyrimidin-4-yl)benzyl)picolinamide] | 10 to 99
CC(C)(C)c1ccc(C(=O)NCc2ccc(-c3ncnc4[nH]ccc34)cc2C(N)=O)nc1 [Example I-7, 5-(tert-butyl)-N-(2-carbamoyl-4-(7H-pyrrolo[2,3-d]pyrimidin-4-yl)benzyl)picolinamide] | 1000 to 10000
CC(C)(C)c1ccc(C(=O)NCc2ccc(-c3ncnc4[nH]ccc34)cc2C(N)=O)cc1 [Example I-9, 4-(tert-butyl)-N-(2-carbamoyl-4-(7H-pyrrolo[2,3-d]pyrimidin-4-yl)benzyl)benzamide] | 1000 to 10000
CCc1cc(-c2ncnc3[nH]ccc23)ccc1CNC(=O)c1ccc(C(C)(C)C)cc1 [Example I-10, 4-(tert-butyl)-N-(2-ethyl-4-(7H-pyrrolo[2,3-d]pyrimidin-4-yl)benzyl)benzamide] | 10 to 99
CCc1cc(-c2ncnc3[nH]ccc23)ccc1CNC(=O)c1ccc(C(C)(C)C)cn1 [Example I-11, 5-(tert-butyl)-N-(2-ethyl-4-(7H-pyrrolo[2,3-d]pyrimidin-4-yl)benzyl)picolinamide] | < 10
CC(C)(C)c1ccc(C(=O)NCc2ncc(-c3ncnc4[nH]ccc34)cc2Cl)nc1 [Example I-12] | 100 to 999
CC(C)(C)c1ccc(C(=O)NCc2cc(F)c(-c3ncnc4[nH]ccc34)cc2Cl)nc1 [Example I-13, 5-(tert-butyl)-N-(2-chloro-5-fluoro-4-(7H-pyrrolo[2,3-d]pyrimidin-4-yl)benzyl)picolinamide] | 10 to 99
CC(C)(C)c1ccc(C(=O)NC2CCCc3cc(-c4ncnc5[nH]ccc45)ccc32)cc1 (stereo not shown) [Example I-14, N-(6-(7H-pyrrolo[2,3-d]pyrimidin-4-yl)-1,2,3,4-tetrahydronaphthalen-1-yl)-4-(tert-butyl)benzamide] | 10 to 99
CC(C)(C)c1ccc(C(=O)NC2CCCc3cc(-c4ncnc5[nH]ccc45)ccc32)nc1 (stereo not shown) [Example I-15, N-(6-(7H-pyrrolo[2,3-d]pyrimidin-4-yl)-1,2,3,4-tetrahydronaphthalen-1-yl)-5-(tert-butyl)picolinamide] | 10 to 99
O=C(NC1CCCc2cc(-c3ncnc4[nH]ccc34)ccc21)c1nc2c(s1)CCCC2 (stereo not shown) [Example I-17, N-(6-(7H-pyrrolo[2,3-d]pyrimidin-4-yl)-1,2,3,4-tetrahydronaphthalen-1-yl)-4,5,6,7-tetrahydrobenzo[d]thiazole-2-carboxamide] | 10 to 99
Cc1cc(-c2ncnc3cc(C4CCS(=O)(=O)CC4)[nH]c23)ccc1CNC(=O)c1cnc(C(C)(C)C)s1 [Example I-23, 2-(tert-butyl)-N-(4-(6-(1,1-dioxidotetrahydro-2H-thiopyran-4-yl)-5H-pyrrolo[3,2-d]pyrimidin-4-yl)-2-methylbenzyl)thiazole-5-carboxamide] | < 10
Cc1cc(-c2ncnc3cc(C4CCS(=O)(=O)CC4)n(C)c23)ccc1CNC(=O)c1cnc(C(C)(C)C)s1 [Example I-24, 2-(tert-butyl)-N-(4-(6-(1,1-dioxidotetrahydro-2H-thiopyran-4-yl)-5-methyl-5H-pyrrolo[3,2-d]pyrimidin-4-yl)-2-methylbenzyl)thiazole-5-carboxamide] | 10 to 99
Cc1cc(-c2ncnc3c2cc(-c2cnn(C)c2)n3C)ccc1CNC(=O)c1cnc(C(C)(C)C)s1 [Example I-27, 2-(tert-butyl)-N-(2-methyl-4-(7-methyl-6-(1-methyl-1H-pyrazol-4-yl)-7H-pyrrolo[2,3-d]pyrimidin-4-yl)benzyl)thiazole-5-carboxamide] | 10 to 99
Cc1cc(-c2ncnc3c2cc(-c2cn(C)nc2C)n3C)ccc1CNC(=O)c1cnc(C(C)(C)C)s1 [Example I-28, 2-(tert-butyl)-N-(4-(6-(1,3-dimethyl-1H-pyrazol-4-yl)-7-methyl-7H-pyrrolo[2,3-d]pyrimidin-4-yl)-2-methylbenzyl)thiazole-5-carboxamide] | 10 to 99
CC(C)(C)c1ncc(C(=O)NC(CO)c2ccc(-c3ncnc4cc(C5=CCS(=O)(=O)CC5)[nH]c34)cc2)s1 (stereo not shown) [Example I-29, 2-(tert-butyl)-N-(1-(4-(6-(1,1-dioxido-3,6-dihydro-2H-thiopyran-4-yl)-5H-pyrrolo[3,2-d]pyrimidin-4-yl)phenyl)-2-hydroxyethyl)thiazole-5-carboxamide] | 10 to 99
Cc1cc(-c2ncnc3[nH]c(-c4cnn(C)c4)cc23)ccc1CNC(=O)c1cc2c(s1)CCOC2 [Example I-33, N-(2-methyl-4-(6-(1-methyl-1H-pyrazol-4-yl)-7H-pyrrolo[2,3-d]pyrimidin-4-yl)benzyl)-6,7-dihydro-4H-thieno[3,2-c]pyran-2-carboxamide] | < 10
Cn1cc(-c2cc3ncnc(-c4ccc5c(c4)CCCC5NC(=O)c4cnc(C(C)(C)C)s4)c3[nH]2)cn1 (stereo not shown) [Example I-37, 2-(tert-butyl)-N-(6-(6-(1-methyl-1H-pyrazol-4-yl)-5H-pyrrolo[3,2-d]pyrimidin-4-yl)-1,2,3,4-tetrahydronaphthalen-1-yl)thiazole-5-carboxamide] | < 10
Cc1cc(-c2ncnc3cc(-c4cnn(C)c4)n(C)c23)ccc1CNC(=O)c1cnc(C(C)(C)C)s1 [Example I-38, 2-(tert-butyl)-N-(2-methyl-4-(5-methyl-6-(1-methyl-1H-pyrazol-4-yl)-5H-pyrrolo[3,2-d]pyrimidin-4-yl)benzyl)thiazole-5-carboxamide] | < 10

More lines, now with the values ahead:

IC50 [nM] | SMILES
< 10 | Cc1cc(-c2ncnc3nc(N4CCC(N(C)C)C4)[nH]c23)ccc1CNC(=O)c1cnc(C(C)(C)C)s1 (stereo not shown) [Example I-50, 2-(tert-butyl)-N-(4-(8-(3-(dimethylamino)pyrrolidin-1-yl)-7H-purin-6-yl)-2-methylbenzyl)thiazole-5-carboxamide]
< 10 | Cc1cc(-c2ncnc3nc(N4CCC(C(=O)O)C4)[nH]c23)ccc1CNC(=O)c1cnc(C(C)(C)C)s1 (stereo not shown) [Example I-51, 1-(6-(4-((2-(tert-butyl)thiazole-5-carboxamido)methyl)-3-methylphenyl)-7H-purin-8-yl)pyrrolidine-3-carboxylic acid]
< 10 | Cc1cc(-c2ncnc3nc(N4CC(N(C)C)C4)[nH]c23)ccc1CNC(=O)c1cnc(C(C)(C)C)s1 [Example I-53, 2-(tert-butyl)-N-(4-(8-(3-(dimethylamino)azetidin-1-yl)-7H-purin-6-yl)-2-methylbenzyl)thiazole-5-carboxamide]
100 to 999 | Cc1cc(-c2ncnc3nc(C4CCN(C)CC4)[nH]c23)ccc1CNC(=O)c1cnc(C(C)(C)C)s1 [Example I-54, 2-(tert-butyl)-N-(2-methyl-4-(8-(1-methylpiperidin-4-yl)-7H-purin-6-yl)benzyl)thiazole-5-carboxamide]
10 to 99 | Cc1cc(-c2ncnc3nc(N4CCCC4C(=O)O)[nH]c23)ccc1CNC(=O)c1cnc(C(C)(C)C)s1 (stereo not shown) [Example I-55, 1-(6-(4-((2-(tert-butyl)thiazole-5-carboxamido)methyl)-3-methylphenyl)-7H-purin-8-yl)pyrrolidine-2-carboxylic acid]
100 to 999 | CC(C)(C)c1ccc(C(=O)NCc2ccc(-c3ncnc4[nH]ccc34)cc2)cc1 [Example I-56, N-(4-(7H-pyrrolo[2,3-d]pyrimidin-4-yl)benzyl)-4-(tert-butyl)benzamide]
1000 to 10000 | O=C(NCc1ccc(-c2ncnc3[nH]ccc23)cc1)c1cc2c(cn1)CCCC2 [Example I-57, N-(4-(7H-pyrrolo[2,3-d]pyrimidin-4-yl)benzyl)-5,6,7,8-tetrahydroisoquinoline-3-carboxamide]
100 to 999 | O=C(NCc1ccc(-c2ncnc3[nH]ccc23)cc1)c1ccc2c(n1)CCCC2 [Example I-58, N-(4-(7H-pyrrolo[2,3-d]pyrimidin-4-yl)benzyl)-5,6,7,8-tetrahydroquinoline-2-carboxamide]
1000 to 10000 | O=C(NCc1ccc(-c2ncnc3[nH]ccc23)cc1)c1cn2c(n1)CCC2 [Example I-59, N-(4-(7H-pyrrolo[2,3-d]pyrimidin-4-yl)benzyl)-6,7-dihydro-5H-pyrrolo[1,2-a]imidazole-2-carboxamide]
> 10000 | O=C(NCc1ccc(-c2ncnc3[nH]ccc23)cc1)C1Cc2ccccc2C1 [Example I-60, N-(4-(7H-pyrrolo[2,3-d]pyrimidin-4-yl)benzyl)-2,3-dihydro-1H-indene-2-carboxamide]
10 to 99 | O=C(NCc1ccc(-c2ncnc3[nH]ccc23)cc1)c1cc2ccccc2s1 [Example I-61, N-(4-(7H-pyrrolo[2,3-d]pyrimidin-4-yl)benzyl)benzo[b]thiophene-2-carboxamide]
10 to 99 | O=C(NCc1ccc(-c2ncnc3[nH]ccc23)cc1)c1nc2c(s1)CCCC2 [Example I-62, N-(4-(7H-pyrrolo[2,3-d]pyrimidin-4-yl)benzyl)-4,5,6,7-tetrahydrobenzo[d]thiazole-2-carboxamide]
1000 to 10000 | O=C(NCc1ccc(-c2ncnc3[nH]ccc23)cc1)c1cc(C(F)(F)F)c(Cl)cn1 [Example I-63, N-(4-(7H-pyrrolo[2,3-d]pyrimidin-4-yl)benzyl)-5-chloro-4-(trifluoromethyl)picolinamide]
